Results on three compounds are retold here after patent US7396836B2, “Pyrimidine compound and medicinal composition thereof” (Eisai R&D Management Co., Ltd., priority 2001, dated 2008).

Assay [1] deals with T1, human adenosine A2B receptor (Homo sapiens, UniProt P29275).
T1 construct: expressed in transfected cells; host or cells: CHOK1 cells
T1 sequence (P29275 1-332): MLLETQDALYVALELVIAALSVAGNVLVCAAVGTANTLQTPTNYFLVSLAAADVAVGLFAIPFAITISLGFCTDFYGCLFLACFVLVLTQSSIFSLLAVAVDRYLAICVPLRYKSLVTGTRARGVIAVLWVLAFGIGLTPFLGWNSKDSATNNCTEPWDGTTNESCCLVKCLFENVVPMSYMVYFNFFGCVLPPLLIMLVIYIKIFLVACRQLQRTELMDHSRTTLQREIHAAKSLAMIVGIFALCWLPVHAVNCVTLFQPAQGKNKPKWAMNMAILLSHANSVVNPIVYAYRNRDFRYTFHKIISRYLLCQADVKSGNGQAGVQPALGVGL
Description: Inhibition of NECA-stimulated production of cAMP in adenosine A2B receptor-expressing CHOK1 cells. It is filed as cell-based. To be noted: cAMP stimulated by 30 nM NECA. The method, then: Experiment of Inhibition of NECA-stimulated Production of cAMP in Adenosine A2B Receptor-expressing Cells
CHOK1 cells where human adenosine A2B receptor had been expressed in excess were plated onto a 24-well plate at a density of 1.5×10^5 cells/well, cultured overnight, and used in the experiment. The degree of inhibitory effect of the test compound on the amount of cAMP produced by stimulation with 30 nM 5′-N-ethylcarboxyamide adenosine (NECA from Sigma) was evaluated in terms of affinity for A2B receptor. That is, the adhering cells were washed twice with 2 ml/well Krebs-Ringer buffer solution (containing 0.1% BSA; pH 7.4) and pre-incubated for 30 minutes in a volume of 0.5 ml/well. Then, a mixed solution containing NECA and the test compound was added in a volume of 0.1 ml/well in the presence of a phosphodiesterase inhibitor Ro-20-1724 (a product of RBI). After pre-incubation for 15 minutes, the reaction was terminated with 0.1 N HCl in a volume of 300 μl/well. Measurement of intracellular cAMP was carried out using a cAMP enzyme immunoassay kit produced by Amersham. The inhibition of NECA-stimulated production of cAMP by the test compound was determined using the following equation: Inhibition (%)=[1−{(amount of cAMP in the coexistence of NECA and the test compound-amount of cAMP in only the Krebs-Ringer buffer solution)/(amount of cAMP upon stimulation with NECA only-amount of cAMP in only the Krebs-Ringer buffer solution)}]×100

Assay [2] deals with SD IGS rats. The experiment in a line: Evaluation of defecation-promoting action. It is filed as in vivo, rat. The note with it: 3 mg/kg oral, 90 minutes after administration, per cage (3 animals/cage). From the text: Evaluation of Defecation-Promoting Action
The defecation-promoting action of the adenosine A2B receptor-inhibiting compound which was identified by measuring the binding affinity or antagonistic activity thereof to the adenosine receptor in Test Examples 1 to 3, a salt thereof, a solvate of them, or a pharmaceutical composition containing it can be evaluated on the basis of the following method. That is, SD IGS rats (6 weeks-old, from Charles River) were placed in cages (3 animals/cage) and preliminarily allowed food and water ad libitum and raised for 1 week. Then, a tared water-absorbing sheet was placed below each cage, and the animals were fasted but allowed water ad libitum throughout the experiment. After 1.5 hours, the fecal pellets were collected from each cage and observed for abnormality before the experiment. The compound suspended or dissolved in 0.5% (w/v) methyl cellulose (MC) was orally administered in a volume of 5 ml/kg. On one hand, 0.5% (w/v) MC only was orally given to the control group. After administration of the compound, the rats were returned to the cage provided with a new water-absorbing sheet, and 90 minutes after the administration, the fecal pellets on the water-absorbing sheet were collected from each cage, and the external appearance was observed, and then counted and weighed. The number of fecal pellets is expressed per each cage.

In assay [3] the target is T2, adenosine A2A receptor (Homo sapiens, UniProt P29274).
T2 construct: purchased Receptor Biology Inc
T2 sequence (P29274 whole entry): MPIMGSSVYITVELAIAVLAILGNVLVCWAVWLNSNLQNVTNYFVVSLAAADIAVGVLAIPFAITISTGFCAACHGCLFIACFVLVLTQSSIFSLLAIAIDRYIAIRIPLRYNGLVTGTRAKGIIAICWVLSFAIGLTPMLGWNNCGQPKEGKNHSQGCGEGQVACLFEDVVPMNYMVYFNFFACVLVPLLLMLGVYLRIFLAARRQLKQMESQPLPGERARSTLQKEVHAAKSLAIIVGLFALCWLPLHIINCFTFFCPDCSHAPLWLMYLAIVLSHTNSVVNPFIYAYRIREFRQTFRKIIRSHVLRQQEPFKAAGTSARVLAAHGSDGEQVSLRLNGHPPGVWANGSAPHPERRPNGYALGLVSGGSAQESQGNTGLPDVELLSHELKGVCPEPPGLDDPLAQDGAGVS
Description: Binding ability to adenosine A2A receptor (3H-CGS21680 displacement). To be noted: A2A receptor membrane sample, Cheng-Prusoff. The method, then:
Measurement of the Binding Ability to Adenosine A2A Receptor
An experiment of inhibition of binding to adenosine A2A receptor was conducted using a membrane sample (Receptor Biology Inc.) where an adenosine A2A receptor cDNA was expressed in excess. This membrane sample was suspended at a protein concentration of 22.2 μg/ml in 20 mM HEPES buffer, pH 7.4 (10 mM MgCl2 and 100 mM NaCl). To 0.45 ml of this membrane sample suspension were added 0.025 ml of 500 nM tritium-labeled 2-p-[2-carboxyethyl]phenetylamino-5′-N-ethylarboxyamide adenosine (^3H-CGS21680, from NEN) and 0.025 ml of test compound. This mixture was left at 25° C. for 90 minutes, filtered rapidly under suction through a glass fiber filter (GF/B, from Whatman), and immediately washed twice with 5 ml of 50 mM ice-cooled Tris-HCl buffer. Thereafter, the glass fiber filter was transferred to a vial, scintillator was added thereto, and the radioactivity on the filter was measured by a liquid scintillation counter. The inhibition of binding of ^3H-CGS21680 to A2A receptor by the test compound was determined using the following formula, and from this inhibition, 50% inhibition concentration (IC50) was calculated. Inhibition (%)=[1−{[(binding in the presence of the test compound)−(nonspecific binding)]/[(total binding)−(nonspecific binding)]}]×100
Here, the total binding means ^3H-CGS21680-bound radioactivity in the absence of the test compound; the nonspecific binding means ^3H-CGS21680-bound radioactivity in the presence of 100 μM RPIA; and the binding in the presence of the test compound means ^3H-CGS21680-bound radioactivity in the presence of the test compound at predetermined concentrations. The inhibition constant (Ki value) in the table was determined from the formula of Cheng-Prusoff.

Assay [4] deals with T3, human adenosine A1 receptor (Homo sapiens, UniProt P30542).
T3 construct: expressed in transfected cells; host or cells: CHOK1 cells (membrane sample)
T3 sequence (P30542 1-326): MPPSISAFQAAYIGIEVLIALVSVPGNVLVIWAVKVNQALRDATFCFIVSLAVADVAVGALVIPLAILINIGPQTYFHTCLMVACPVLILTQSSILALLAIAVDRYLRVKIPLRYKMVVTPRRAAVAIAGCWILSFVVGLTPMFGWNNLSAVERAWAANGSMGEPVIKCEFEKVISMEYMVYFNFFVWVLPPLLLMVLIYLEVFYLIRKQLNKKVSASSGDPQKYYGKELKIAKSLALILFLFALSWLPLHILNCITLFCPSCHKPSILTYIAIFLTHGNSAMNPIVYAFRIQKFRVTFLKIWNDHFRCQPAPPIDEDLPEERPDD
The experiment in a line: Binding affinity to adenosine A1 receptor (3H-CCPA displacement). To be noted: membranes of CHOK1 cells expressing human A1 receptor, Cheng-Prusoff. How it is done:
Measurement of the binding affinity to adenosine A1 receptor
A human adenosine A1 receptor cDNA was expressed in excess in CHOK1 cells, and this membrane sample was suspended at a protein concentration of 66.7 μg/ml in 20 mM HEPES buffer, pH 7.4 (10 mM MgCl2, 100 mM NaCl). To 0.45 ml of this membrane sample suspension were added 0.025 ml of 60 nM tritium-labeled chlorocyclopentyl adenosine (^3H-CCPA, from NEN Ltd.) and 0.025 ml of test compound. This mixture was left at 30° C. for 120 minutes, filtered rapidly under suction through a glass fiber filter (GF/B, from Whatman), and immediately washed twice with 5 ml of 50 mM water-cooled Tris-HCl buffer. Thereafter, the glass fiber filter was transferred to a vial, scintillator was added thereto, and the radioactivity on the filter was measured by a liquid scintillation counter. The inhibition of binding of ^3H-CCPA to A1 receptor by the test compound was determined using the following formula, and from this value, 50% inhibition concentration (IC50) was calculated. Inhibition (%)=[1-{(binding in the presence of the test compound-nonspecific binding)/(total binding-nonspecific binding)}]×100
In the above formula, the total binding means ^3H-CCPA-bound radioactivity in the absence of the test compound; the nonspecific binding means ^3H-CCPA-bound radioactivity in the presence of 100 μM CPA ([…]); and the binding in the presence of the test compound means ^3H-CCPA-bound radioactivity in the presence of the test compound at predetermined concentrations. The inhibition constant (Ki value) in the table was determined from the formula of Cheng-Prusoff.

The subject of assay [5] is haloperidol-induced catalepsy. The experiment in a line: Evaluation of effects on haloperidol-induced catalepsy. It is filed as in vivo, mouse. The note with it: ICR mice, haloperidol 1 mg/kg i.p., 1 hour after administration, score 0-5. From the text:
Evaluation of Effects on Haloperidol-induced Catalepsy Parkinson's disease is a disease caused by the degeneration or cell death of nigrostriatal dopaminergic neurons. The administration of haloperidol (dopamine D1/D2 receptor antagonist) blocks postsynaptic D2 receptors to induce catalepsy. The haloperidol-induced catalepsy has been known as a classic model that mimics Parkinson's disease by drug administration (Eur. J. Pharmacol., 182, 327-334(1990)). The adenosine A2A receptor antagonist compounds identified by measuring on their binding abilities to the receptors in Test Examples 1 to 3, the salts thereof, solvates of them, or pharmaceutical compositions containing those were evaluated for effect on haloperidol-induced catalepsy by the method described below. That is, the experiment was conducted by eight 5-week-old male ICR mice (available from Charles River) per group. Haloperidol (manufactured by Sigma Co., Ltd.) was dissolved in a 6.1% tartaric acid solution and the resulting solution in a dose of 1 mg/kg was then intraperitoneally administered to the mice. The test compound was used as a 0.5% MC suspension. 1.5 hours after the intraperitoneal administration of haloperidol, each of the suspension with the test compound and the suspension without the test compound (control) was orally administered to the mice (0.1 ml per 10 g of mouse body weight). 1 hour after the administration of the test compound, the degree of catalepsy was measured with respect to each of the mice such that a pair of only forelimbs and a pair of only hindlimbs of each mouse were placed by turns on a stand 4.5 cm in height and 10 cm in width. […] Catalepsy scores and criterions are as follows. […] The effects of the compound were determined by making a comparison between the score of the control group and the score of the test group in which the test compound was administered. A significant difference was analyzed by Dunnett's-test.

A word on the IC50: it is the concentration that gives 50% inhibition. Broadly, the Ki is a dissociation constant, usually derived from enzyme kinetics or from competition with a known ligand. In assay [1], `C=CCn1cc(-c2cnc(N)nc2-c2ccco2)ccc1=O` [Example 18, 1-Allyl-5-[2-amino-4-(2-furyl)-5-pyrimidinyl]-1,2-dihydro-2-pyridinone] came in with an IC50 of 26 nM. Moreover, the “Number of fecal pellets Mean ± S.E.” value in assay [2] is reported as 14.50 ± 1.26. The Ki was 2 nM in assay [3] and 114 nM in assay [4].

Regarding `CCn1cc(-c2cnc(N)nc2-c2ccco2)ccc1=O` [Example 17, 5-[2-Amino-4-(2-furyl)-5-pyrimidinyl]-1-ethyl-1,2-dihydro-2-pyridinone], in assay [1], the IC50 worked out at 25 nM. Further, in assay [2], the “Number of fecal pellets Mean ± S.E.” value was found to be 15.50 ± 3.18. The Ki in assay [3] is 3 nM; in assay [4] it was 289 nM. Besides, the “Catalepsy score (Mean ± S.E.)” value in assay [5] (test compound 0.1 mg/kg oral) was 3.38 ± 0.53; in assay [5] (test compound 1.0 mg/kg oral), 1.13 ± 0.67.

`Cn1cc(-c2cnc(N)nc2-c2ccco2)ccc1=O` [Example 16, 5-[2-Amino-4-(2-furyl)-5-pyrimidinyl]-1-methyl-1,2-dihydro-2-pyridinone] showed an IC50 in assay [1] of 29 nM. In assay [2], the “Number of fecal pellets Mean ± S.E.” value is 12.50 ± 0.96. For the same compound, the Ki in assay [3] worked out at 6 nM; in assay [4], 175 nM. The “Catalepsy score (Mean ± S.E.)” value in assay [5] (test compound 0.1 mg/kg oral) is listed as 4.63 ± 0.38; in assay [5] (test compound 1.0 mg/kg oral), 0.88 ± 0.64.
